Measurements reported in patent publication US11952365B2, “Anti-viral compounds” (Aligos Therapeutics, Inc., priority 2020, dated 2024).
Like-named read-outs stand apart in the source and are kept apart here.

What was measured:
HRV3C = HRV3C (Human rhinovirus 14, UniProt P03303); test: HRV3C protease assay (duplex, SAMDI-MS); assay type: biochemical, HRV; conditions: 30 mins preincubation
Method in brief: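 Readout is SAMDI mass spectrometry: biotinylated substrates, products and internal standards were immobilized on neutravidin monolayers and product formation taken as the AUC ratio to internal standard. Reactions ran 30 min at ambient temperature after 30 min compound preincubation, in duplex with 3CLpro. IC50 values came from four-parameter curve fitting.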

[1] = system: human beta-coronavirus OC43; test: microbe, parasite or virus in culture; assay type: cell-based
[2] = Cytotoxicity plates without OC43 virus (cell-titer-glo); assay type: cell-based, human; conditions: human; HeLa cells without OC43 virus, class symbols
Method in brief: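 Run as a virus-free counterpart of the OC43 cytopathic-effect assay. Attached HeLa cells received compound dilutions in EMEM with 2% FBS and were kept 6 days at 33 °C. Cell viability was then measured by CellTiter-Glo luminescence.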

[3] = system: SARS-CoV-2-GHB-03021/2020; test: SARS-CoV-2 Infection Model in Huh7 Cells; assay type: cell-based; conditions: Severe acute respiratory syndrome coronavirus 2, Huh-7, 96 h, SARS-CoV-2, day 4 p.i., MTS
[4] = system: SARS-CoV-2-GHB-03021/2020; test: microbe, parasite or virus in culture; assay type: cell-based; conditions: Severe acute respiratory syndrome coronavirus 2, Vero C1008, 96 h; read-out: VeroE6 + CP (EC50)
human cathepsin L = target: T1, human cathepsin L (Homo sapiens, UniProt P07711); test: cathepsin L assay; assay type: biochemical; conditions: 10 pM human cathepsin L, Z-FR-AMC 2 μM, class symbols
T1 construct: purchased R&D Systems
Method in brief: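 Reactions began by adding 2 μM (final) Z-FR-AMC substrate to 10 pM human cathepsin L that had been preincubated 30 min with inhibitor. Kinetic AMC fluorescence at 355/460 nm over 30 min at 2-min intervals; four-parameter fitting gave IC50 values.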

in vitro [5] = conditions: human
in vitro [6] = conditions: African green monkey, VeroE6 + CP (CC50), Vero E6-eGFP cells with CP-100356, absence of virus, MTS
3CLpro = 3CLpro (Severe acute respiratory syndrome coronavirus 2, UniProt P0DTD1); test: SARS-CoV-2 3CLpro protease assay (duplex, SAMDI-MS); assay type: biochemical; set-up: For the duplex assay, 3CLpro and HRV3C was added; conditions: 3CLpro, 30 mins preincubation, class symbols; read-out: SARS-Cov-2 IC50
[7] = Betacoronavirus 1, OC43, HeLa, 144 h
[8] = HRV3C, bound, read-out: HRV IC50
[9] = Betacoronavirus 1, OC43, HeLa, 144 h, OC43 in HeLa cells, 6 days at 33° C., class symbols, read-out: EC50
[10] = HRV3C, class symbols, read-out: HRV IC50

Compound | IC50 (HRV3C; HRV IC50, HRV3C, class symbols) [µM] | EC50 [1, 7] [µM] | CC50 at 6 days [2] [µM] | EC50 ([3]; class symbols) [µM] | EC50 [4] [µM] | IC50 (human cathepsin L) [µM] | CC50 (in vitro [5]) [µM] | CC50 (in vitro [6]; class symbols) [µM] | IC50 (3CLpro) [µM] | IC50 (HRV3C; [8]) [µM] | EC50 [1, 9] [µM] | EC50 ([3]; numeric bounds) [µM] | CC50 (in vitro [6]; numeric bounds) [µM] | IC50 (HRV3C; [10]) [µM] | IC50 (HRV3C; HRV IC50, HRV3C, bound) [µM] | EC50 ([1]; OC43 in HeLa cells, 6 days at 33° C., class symbols, read-out: EC50) [µM]
CC(C)COCCNC(=O)C(=O)[C@H](C[C@@H]1CCNC1=O)NC(=O)[C@@H]1[C@H]2CCC[C@H]2CN1C(=O)c1cc2c(Cl)cc(Cl)cc2[nH]1 [Compound 149, (1S,3aR,6aS)-2-(4,6-dichloro-1H-indole-2-carbonyl)-N—((S)-4-((2-isobutoxyethyl)amino)-3,4-dioxo-1-((S)-2-oxopyrrolidin-3-yl)butan-2-yl)octahydrocyclopenta[c]pyrrole-1-carboxamide] | 2 to 20 | 0.1 to 1 | > 10 | < 1 | < 1 | 1 to 10 | 1 to 10 | > 10 | 0.02 to 0.2 |  |  |  |  |  |  | 
CS(=O)(=O)Oc1cccc2[nH]c(C(=O)N3C[C@@H]4CCC[C@@H]4[C@H]3C(=O)N[C@@H](C[C@@H]3CCNC3=O)C(=O)CO)cc12 [Compound 155, 2-[(1S,3aR,6aS)-1-{[(2S)-4-hydroxy-3-oxo-1-[(3S)-2-oxopyrrolidin-3-yl]butan-2-yl]carbamoyl}-hexahydro-1H-cyclopenta[c]pyrrole-2-carbonyl]-1H-indol-4-yl methanesulfonate] |  |  | > 10 |  | 10 to 100 | ≥ 10 | > 50 |  | 0.02 to 0.2 | > 10 | 1 to 10 | > 50 | > 50 |  |  | 
O=C1NCC[C@H]1C[C@H](NC(=O)[C@@H]1[C@H]2CCC[C@H]2CN1C(=O)c1cc2c(Cl)c(F)c(Cl)cc2[nH]1)C(=O)CO [Compound 121, (1S,3aR,6aS)-2-(4,6-dichloro-5-fluoro-1H-indole-2-carbonyl)-N—((S)-4-hydroxy-3-oxo-1-((S)-2-oxopyrrolidin-3-yl)butan-2-yl)octahydrocyclopenta[c]pyrrole-1-carboxamide] |  |  | > 10 | < 1 | 1 to 10 | ≥ 10 | > 50 |  | 0.02 to 0.2 | > 10 | < 0.1 |  | > 50 |  |  | 
O=C1NCC[C@H]1C[C@H](NC(=O)[C@@H]1[C@H]2CCC[C@H]2CN1C(=O)c1cc2c(OC(F)(F)F)cccc2[nH]1)C(=O)CO [Compound 64, (1S,3aR,6aS)—N-[(2S)-4-hydroxy-3-oxo-1-[(3S)-2-oxopyrrolidin-3-yl]butan-2-yl]-2-[4-(trifluoromethoxy)-1H-indole-2-carbonyl]-hexahydro-1H-cyclopenta[c]pyrrole-1-carboxamide] |  |  | > 10 | < 1 | < 1 | ≥ 10 | > 10 | > 10 | 0.02 to 0.2 | > 10 | < 0.1 |  |  |  |  | 
COc1cccc2[nH]c(C(=O)N3C[C@H](c4ccccc4)C[C@H]3C(=O)N[C@@H](C[C@@H]3CCNC3=O)C(=O)CO)cc12 [Compound 32] |  |  | > 10 | 1 to 10 | 1 to 10 | ≥ 10 | > 100 |  | 0.02 to 0.2 |  | 0.1 to 1 |  | > 100 | 0.2 to 2 |  | 
COc1cccc2[nH]c(C(=O)N3C[C@@H]4CCC[C@@H]4[C@H]3C(=O)N[C@@H](C[C@@H]3CCNC3=O)C(=O)CO)c(F)c12 [Compound 151, (1S,3aR,6aS)-2-(3-fluoro-4-methoxy-1H-indole-2-carbonyl)-N—((S)-4-hydroxy-3-oxo-1-((S)-2-oxopyrrolidin-3-yl)butan-2-yl)octahydrocyclopenta[c]pyrrole-1-carboxamide] |  | 1 to 10 | > 10 | 1 to 10 | 10 to 100 | ≥ 10 | > 50 |  | 0.02 to 0.2 |  |  |  | > 50 |  | > 10 | 
O=C(NC1CC1)C(=O)C(CC1CC2(CC2)NC1=O)NC(=O)[C@@H]1[C@H]2CCC[C@H]2CN1C(=O)c1cc2c(Cl)cc(Cl)cc2[nH]1 (single isomer, unassigned) [Compound 116A, (1S,3aR,6aS)—N-(4-(cyclopropylamino)-3,4-dioxo-1-((R*)-5-oxo-4-azaspiro[2.4]heptan-6-yl)butan-2-yl)-2-(4,6-dichloro-1H-indole-2-carbonyl)octahydrocyclopenta[c]pyrrole-1-carboxamide] |  |  | > 10 | < 1 | 1 to 10 | ≥ 10 | > 10 |  | 0.02 to 0.2 |  |  |  | > 50 | 0.2 to 2 |  | 0.1 to 1
Cc1ccc2[nH]c(C(=O)N3CCC4(CC4)C[C@H]3C(=O)N[C@@H](C[C@@H]3CCNC3=O)C(=O)C(=O)NC3CC3)cc2c1 [Compound 146] |  |  | > 10 | 1 to 10 | 1 to 10 | 1 to 10 | > 10 |  | < 0.02 |  | 0.1 to 1 |  | > 50 | 2 to 20 |  | 
O=C1NCC[C@H]1C[C@H](NC(=O)[C@@H]1[C@H]2CCC[C@H]2CN1C(=O)c1cc2ccsc2[nH]1)C(=O)CO [Compound 80, (1S,3aR,6aS)—N-[(2S)-4-hydroxy-3-oxo-1-[(3S)-2-oxopyrrolidin-3-yl]butan-2-yl]-2-{6H-thieno[2,3-b]pyrrole-5-carbonyl}-hexahydro-1H-cyclopenta[c]pyrrole-1-carboxamide] | 2 to 20 | 1 to 10 | > 10 | 1 to 10 | 1 to 10 | ≥ 10 | > 50 |  | 0.02 to 0.2 |  |  |  | > 50 |  |  | 
COc1ccc(F)c2[nH]c(C(=O)N3C[C@@H]4CCC[C@@H]4[C@H]3C(=O)N[C@@H](C[C@@H]3CCNC3=O)C(=O)CO)cc12 [Compound 65, (1S,3aR,6aS)-2-(7-fluoro-4-methoxy-1H-indole-2-carbonyl)-N-[(2S)-4-hydroxy-3-oxo-1-[(3S)-2-oxopyrrolidin-3-yl]butan-2-yl]-hexahydro-1H-cyclopenta[c]pyrrole-1-carboxamide] |  |  | > 10 | < 1 | < 1 | ≥ 10 | > 100 | > 10 | < 0.02 |  | 0.1 to 1 |  |  | 0.2 to 2 |  | 
COc1cccc2[nH]c(C(=O)N3C[C@@H]4CCC[C@@H]4[C@H]3C(=O)NC(C[C@@H]3CCNC3=O)C(=O)C(=O)NC3CC3)cc12 (stereo partly drawn) [Compound 52, 3-{[(1S,3aR,6aS)-2-(4-methoxy-1H-indole-2-carbonyl)-hexahydro-1H-cyclopenta[c]pyrrol-1-yl]formamido}-N-cyclopropyl-2-oxo-4-[(3S)-2-oxopyrrolidin-3-yl]butanamide] |  |  | > 10 | 10 to 100 | 1 to 10 | ≥ 10 | > 100 |  | < 0.02 |  | 1 to 10 |  | > 100 | 0.2 to 2 |  | 
O=C(NCc1ccccc1)C(=O)[C@H](C[C@@H]1CCNC1=O)NC(=O)[C@@H]1C[C@@]2(CN1C(=O)c1cc3ccccc3[nH]1)CC2(F)F [Compound 23] |  |  | > 10 | 1 to 10 | 1 to 10 | 0.1 to 1 | > 100 |  | 0.02 to 0.2 |  | 0.1 to 1 |  | > 100 | 2 to 20 |  | 
